Series [1] concerns Folsomia candida. The following applies: 28 days, LUFA 2.2 soil. Here is the method: Tests were performed in 100 ml glass jars, containing c. 30 g moist soil, using five replicate test jars for each exposure concentration. Each jar received ten 10–12 day old animals from age-synchronized cultures, after checking their health under a binocular microscope. The animals were fed with a few grains of dry baker’s yeast (Instant yeast from Algist Bruggeman N.V, Ghent, Belgium) weekly, in small amounts to avoid fungal growth. All incubations took place at 20 ± 2 °C at 75% Relative Humidity and a photoperiod of 16:8 dark: light hours. Test jars were weighed at the start, so that water loss could be monitored on a weekly basis and replenished with deionized water if needed. After exposure, all animals were extracted by flotation and pictures were taken to enable counting the number of surviving adults and juveniles produced using the software package ImageJ with a Cell Counter extension.
If no proper fit was obtained, LC50 values were calculated using the trimmed Spearman-Karber method (Hamilton et al. [1977]/78). No observed effect concentrations (NOEC) were determined applying a one-way ANOVA followed by a one-sided Dunnett’s post hoc test at a significance level of p < 0.05. All statistical analysis, except for the Trimmed Spearman Karber method, were run in SPSS 23.

Series [2] concerns Folsomia candida. The following applies: cited from earlier work.
For series [3] the following is noted: cited from earlier work.
The subject of series [4] is Folsomia candida. The series is described as follows: Multigeneration toxicity test (survival and reproduction) with springtails in spiked LUFA 2.2 soil. As to conditions: for EC10 / EC50: number of juveniles. The format is in vivo. The procedure: F. candida were taken from cultures at the Department of Ecological Science at the Vrije Universiteit in Amsterdam. To obtain age-synchronized animals, adults from the culture were separated in boxes with a layer of plaster of Paris over a period of 2–3 days to lay eggs, after which they were removed. After removal of the adults, the eggs were incubated under a 12 h light/12 h dark regime at 20 °C and 75% relative humidity, where they hatched and grew. Juveniles of 10–12 days old were used for testing.
All tests were performed in the natural standard LUFA 2.2 (Lufa Speyer, Germany), a loamy sand with 1.59 ± 0.13% organic carbon, pH in 0.01 M CaCl2 of 5.4 ± 0.2, and water holding capacity (WHC) of 43.5 ± 2.8% of its dry weight.
Pure imidacloprid and thiacloprid (purity 98%) were kindly provided by Bayer CropScience, Monheim, Germany. Test concentrations of imidacloprid and thiacloprid were based on the results of earlier tests. Stock solution of both compounds in water were prepared, to spike the chemicals into the soil and at the same time bringing moisture content to the desired level of 50% of the WHC. To ensure complete thiacloprid dissolution, a small amount of acetone was added to the stock solution. This stock solution was used to spike soil with the highest test concentration and further diluted for spiking soil with the lower concentrations tested. Considering the low amount of acetone needed to make thiacloprid completely dissolve, no attempts were made to correct for that by adding acetone to the lower concentrations and control in the multigeneration test. All soils were thoroughly mixed to achieve a homogenous distribution of the test chemicals in the test soil.
Multigeneration tests started with a control, […] imidacloprid (0, 0.001, 0.003, 0.01, 0.03, 0.1, 0.3, 1.0 mg/kg dry soil) and 9 thiacloprid concentrations (0, 0.0015, 0.0045, 0.014, 0.041, 0.11, 0.31, 1.1, 3.3, 10.0 mg/kg dry soil). Batches of soil sufficient to perform three toxicity tests were prepared. After filling test jars for the parent generation exposure, the remaining spiked soil was stored in glass jars in a climate room at 20 °C for subsequent exposure of the next two generations. Moisture content of the spiked soil was checked regularly by weighing the jars, and replenished by adding deionized water if needed.
After 28 days (35 days for the second generation), the juveniles from the same exposure concentration were pooled in the same container with a moist plaster of Paris bottom and incubated overnight before being transferred to the next cycle of exposure. This experiment spanned a total of three continuous generations (referred to as F0, F1, and F2).

Series [5] is described as follows: Chemical analysis of concentrations in test soil (LC-MS) and degradation half-life (DT50). The format is physicochemical. As to conditions: for concentration, % of the nominal concentration: after 63 days. Here is the method: Soil samples for chemical analysis of imidacloprid and thiacloprid in the test soil were taken at the start of the exposure of each new generation.
The analytical method to determine actual imidacloprid and thiacloprid concentrations in the test soils followed the principles of the QuEChERS extraction method modified from Anastasiades et al. ([2003]) and Payá et al. ([2007]). Briefly, the procedure used was as follows: approx. 1 g moist soil was taken for low concentration treatments (<1 mg/kg), and 50 µL internal standard (Imidacloprid-d4 and Thiacloprid-d4, 250 µg/L) was added. The sample was shaken for 20 min at 250 rpm with 2 mL methanol and centrifuged for 3 min at 1500 rpm. The methanol phase was passed through a granular Na2SO4 column, evaporated till dryness and the residue taken up in 3 mL acetonitrile. For high concentration samples (>1 mg/kg), the soil was first shaken with methanol and centrifuged. Subsequently an aliquot of 100 µL was taken and together with 50 µL internal standard (Imidacloprid-d4 and Thiacloprid-d4, 250 µg/L) added to 1 mL methanol, passed through a granular Na2SO4 column, evaporated to dryness and taken up in 3 mL acetonitrile. For clean-up, the acetonitrile extract was added to a tube filled with Supel QuE (C18 150 mg, PSA 150 mg, MgSO4 900 mg, Sigma Aldrich), shaken by hand for 2 min and centrifuged for 3 min at 3000 rpm. The supernatant was evaporated till dryness under gentle nitrogen stream and the residue taken up in 200 µL of a water-methanol (9/1) mixture.
Extracts were analyzed using LC-MS and quantified by isotope dilution (imidacloprid-d4 and thiacloprid-d4). The neonicotinoids were separated on a 100 × 2.1 mm, 2.6 µm Kinetex XB-C18 column (Phenomenex), applying a gradient of 5 mM ammonium formate pH 4 buffer and methanol, at a flow rate of 0.3 mL/min. The LC system (Agilent 1200 series) was coupled to a 6410 triple quadrupole MS (Agilent) using electrospray ionization (ESI) with data acquisition in positive ion mode. The transitions for imidacloprid were 256.1 > 175/209 (quantifier/qualifier) and for imidacloprid-d4 260 > 179. For thiacloprid the transitions were253.1 > 126/90 (quantifier/qualifier) with 257 > 126 for thiacloprid-d4.
Using data on the imidacloprid and thiacloprid concentrations measured at different times after spiking the soil in the multigeneration test, half-life (DT50) values were estimated assuming first order degradation kinetics. The equation C = C0 * e^−k*t was fitted to the data, with C = concentration at time t in days, C0 is concentration at t = 0 and k = degradation rate constant (day^−1). DT50 was derived as ln(2) / k.

Setting [6] is: number of juveniles, with 95% confidence interval.
The mark [7] stands for this setting: 28-day exposure, Lufa 2.2, ~3.0% OM, pure, ref De Lima e Silva et al. (submitted).
The mark [8] stands for this setting: F0 generation, 28 days, LUFA 2.2 soil, nominal concentrations.
Where [9] appears, read: F1 and F2 generations, 3.3 mg/kg dry soil.
Setting [10] is: F1 generation, 35 days, soil spiked at start of F0, nominal concentrations.
Setting [11] is: F2 generation, 28 days, soil spiked at start of F0, nominal concentrations.
Setting [12] is: F2 generation, 28 days, soil spiked at start of F0, nominal concentrations, listed as thiacloprid.

The values that follow come from PMC5397431, “Multigeneration toxicity of imidacloprid and thiacloprid to Folsomia candida” (Ecotoxicology (London, England), 2017).

Where “and” joins values, the source holds several entries; their conditions need not be identical. Identical values can stand only once. Like-named read-outs stand apart in the source and are kept apart here. Some results are limits rather than exact numbers.

For orientation: half-life means how long it takes for the measured level to halve.

In series [1], `OB(O)O` [Boric acid, boric acid] registered an NOEC of 20 mg/kg dry soil. The EC10 in series [1] (setting [6]) was 29 (25–33) mg/kg dry soil. Also, the EC50 in series [1] (setting [6]) is 51 (47–54) mg/kg dry soil; in series [2] (OECD artificial soil, value mentioned in the test guideline, ref OECD (2009)), 100 mg/kg dry soil.
As to `N#C/N=C1\SCCN1Cc1ccc(Cl)nc1` [Thiacloprid, thiacloprid], the field-based half-lives in series [3] (field, ref European Commission (2004)) is 9 to 27 days. For the same compound, in series [3] (laboratory tests, ref Goulson (2013), Bonmatin et al. (2015)), the half-life in soil is 81.6 to 1780 h. Further, the “factor less persistent in soil than imidacloprid” value in series [3] (ref Goulson (2013), Bonmatin et al. (2015)) is given as 10. Moreover, the EC50 in series [2] (setting [7]) is 1.7-2.4 mg/kg dry soil; in series [4] (setting [8]), 1.5 mg/kg dry soil; in series [4] (setting [10]) it was > 3.33 mg/kg dry soil and > 3.3 mg/kg dry soil; in series [4] (setting [11]) it was greater than 3.3 mg/kg dry soil; in series [4] (setting [12]) it was > 3.33 mg/kg dry soil and > 3.3 mg/kg dry soil. Moreover, the LC50 in series [2] (setting [7]) was 4.3-4.9 mg/kg dry soil; in series [4] (F0 generation, 28 days, adult survival, LUFA 2.2 soil, nominal concentrations) it was 9.0 mg/kg dry soil; in series [4] (setting [10]), > 3.33 mg/kg dry soil and > 3.3 mg/kg dry soil; in series [4] (setting [11]) it was greater than 3.3 mg/kg dry soil; in series [4] (setting [12]), > 3.33 mg/kg dry soil and > 3.3 mg/kg dry soil. For the same compound, in series [4] (F0 generation, 3.3 mg/kg dry soil), the effect on reproduction entry was “significantly reduced”. Further, the NOEC in series [4] (setting [8]) is 0.11 mg/kg dry soil; in series [4] (setting [10]), no less than 3.3 mg/kg dry soil; in series [4] (setting [12]), 1.1 mg/kg dry soil. Further, the EC10 is listed as 0.23 mg/kg dry soil in series [4] (setting [8]) and greater than 3.3 mg/kg dry soil in series [4] (setting [11]). Also, the “juveniles produced, on average” value in series [4] (F0 generation, highest concentration tested 10 mg/kg dry soil) came to 3 per jar. In addition, in series [4] (setting [9]), the “effects on juvenile numbers” value is given as “no effects”. Further, the springtail reproduction affected entry in series [4] (setting [9]) is “less than 50%”. Moreover, the “LC50, range over generations” value in series [4] (range over the three generations, Lufa 2.2, pure compound, this study) was >3.33-9.0 mg/kg dry soil. The half-life in series [5] (LUFA 2.2 soil (spiked natural loamy sand), pH 5.4, LUFA 2.2 soil, 20 °C, first order kinetics, read-out: DT50 (half-life) for degradation in test soil) lay within 240 to 288 h. The “concentration, % of nominal” value in series [5] (LUFA 2.2 soil, after 28 days, 1.1 and 3.3 mg/kg dry soil) was 91.2–101% and 90–100%. For the same compound, the “concentration, % of the nominal values” in series [5] (LUFA 2.2 soil, after 63 days of incubation, all concentrations) is given as 7.6–22.0%. Besides, the “concentration, % of the nominal concentration” value in series [5] (LUFA 2.2 soil, 0.0137 mg/kg) is reported as 22.0%; in series [5] (LUFA 2.2 soil, 0.113 mg/kg), 19.8%. Besides, the “concentration measured in soil” value in series [5] (T=28, nominal 1.11, mean ± SD (n=3)) amounted to 1.1±0.35 mg/kg dry soil; in series [5] (T=28, nominal 3.33, mean ± SD (n=3)), 3.0±0.42 mg/kg dry soil; in series [5] (T=28, nominal 10, mean ± SD (n=3)), 5.7±0.27 mg/kg dry soil; in series [5] (T=63 d, nominal 0.014, mean ± SD (n=3)), 0.003±0.0002 mg/kg dry soil; in series [5] (T=63 d, nominal 0.113, mean ± SD (n=3)), 0.022±0.00044 mg/kg dry soil; in series [5] (T=63 d, nominal 1.11, mean ± SD (n=3)) it was 0.12±0.0054 mg/kg dry soil. Besides, the “concentration measured in soil” value amounted to 0.26±0.0038 mg/kg dry soil in series [5] (T=63 d, nominal 3.33, mean ± SD (n=3)) and 0.76±0.015 mg/kg dry soil in series [5] (T=63 d, nominal 10, mean ± SD (n=3)).
